Data set [1] can be described thus: PTX solubility in PLHNs / water. It counts as physicochemical.
For data set [2] the following is noted: cited from earlier work.

Each structure is given as a SMILES string. ≈ marks a conversion by molar mass, not a printed value. Where two headings read alike, the source gives them in different places.

`CC(=O)O[C@H]1C(=O)[C@@]2(C)[C@H]([C@H](OC(=O)c3ccccc3)[C@]3(O)C[C@H](OC(=O)[C@H](O)[C@@H](NC(=O)c4ccccc4)c4ccccc4)C(C)=C1C3(C)C)[C@]1(OC(C)=O)CO[C@@H]1C[C@@H]2O` [PTX, Paclitaxel] gave a solubility in data set [1] of about 6 µg/mL (≈ 7.03 µM). The “Plasma concentration threshold above which PTX is pharmacologically active” value in data set [2] is on record as 0.1 µM; in data set [2] (equivalent of 0.1 µM) it was 85.3 ng/ml.

The values above are taken from article PMC8261254 (Asian Journal of Pharmaceutical Sciences, 2021).
